41 molecules from ChEMBL document CHEMBL4483862, “Open-source discovery of chemical leads for next-generation chemoprotective antimalarials” (2018) can be followed below.

Each structure is given as a SMILES string.

A word on the IC50: it is the concentration that inhibits the measured activity by half. For orientation: IC90 means the concentration needed for an effect of 90%.

This assay has as its system Plasmodium berghei. Nature of the assay: Luciferase/luciferin-expressing antifolate-resistant parasites were used to infect a culture of HepG2 cells that were pre-incubated with compounds. Infected hepatocytes emit light due to the luciferase reaction. Assay results are presented as the percent inhibition of light emission compared to control. […]. The following applies: sporozoite; for IC90: read-out: LUCIFERASE INFECTION ASSAY - IC90. The class given is functional.

The mark [1] stands for this setting: read-out: LUCIFERASE INFECTION ASSAY - IC50.

As for `COc1cc(NC(=O)Nc2nc(C(N)Cc3ccc(C(F)(F)F)cc3)cs2)cc(OC)c1OC` (configuration not stated), the concentration for an effect of 90% (IC90) was over 6.65 µM. Where the note is “PBLUC_HILL_SLOPE 15.7, PBLUC_R_SQUARED 0.39, read-out: LUCIFERASE INFECTION ASSAY - IC50”, the IC50 is 6.04 µM.
On to `CCc1ccc(CN(C)C(C)C(=O)Nc2cc(S(=O)(=O)N(C)C)ccc2C)cc1` (configuration not stated), for which the concentration for an effect of 90% (IC90) was over 10 µM. For the same molecule, under setting [1], the IC50 turned out to be 8.31 µM.
Turning to `O=C(O)CSc1nc2ccccc2c(=O)n1-c1ccccc1Cl`, the IC90 was over 10 µM. In addition, the IC50 under setting [1] is over 10 µM.
`c1ccc2c(-c3cc(Nc4ccc5[nH]ccc5c4)ncn3)cccc2c1`: the IC90 was 4.49 µM. The IC50 (HEPG2TOX_HILL_SLOPE 1.68, HEPG2TOX_R_SQUARED 0.859, PBLUC_HILL_SLOPE 1.6, PBLUC_R_SQUARED 0.806, read-out: LUCIFERASE INFECTION ASSAY - IC50) was 1.13 µM.
As to `CCCn1c(N)c(C(=O)CSc2nnc(-c3ccccc3)c(-c3ccccc3)n2)c(=O)n(C)c1=O`, the IC90 was over 10 µM. Under setting [1], the IC50 is over 10 µM.
On to `CCOc1ccccc1NC1=C(Cl)C(=O)c2ccccc2C1=O`, for which the IC90 turned out to be 9.94 µM. In addition, the IC50 (HEPG2TOX_HILL_SLOPE 12.2, HEPG2TOX_R_SQUARED 0.715, PBLUC_HILL_SLOPE 2.84, PBLUC_R_SQUARED 0.486, read-out: LUCIFERASE INFECTION ASSAY - IC50) is 4.58 µM.
Consider `CN1CCN(c2ccc(Cl)cc2NC(=O)c2cccc(Oc3ccccc3)c2)CC1`, for which the IC90 was 2.23 µM. Further, the IC50 (PBLUC_HILL_SLOPE 1.31, PBLUC_R_SQUARED 0.699, read-out: LUCIFERASE INFECTION ASSAY - IC50) was 0.415 µM.
In the case of `O=C(Nc1ccccc1)c1ccccc1OCC(O)COCc1ccc(Cl)cc1` (configuration not stated), the IC90 is over 10 µM. Besides, under setting [1], the IC50 was over 10 µM.
In the case of `Cc1ccc(CN(C)C(=O)C2CCN(c3ncnc4sc(C)c(C)c34)CC2)o1`, the concentration for an effect of 90% (IC90) was over 10 µM. Further, the IC50 (PBLUC_HILL_SLOPE 6.95, PBLUC_R_SQUARED 0.517, read-out: LUCIFERASE INFECTION ASSAY - IC50) amounted to 8.99 µM.
For the molecule `O=c1c2c([nH]c3c(-c4ccccc4)c(Cc4ccccc4)nn13)CCCC2`, the IC90 is over 9.28 µM. The IC50 under setting [1] was over 9.28 µM.
For the molecule `CC1(C)CC(Nc2ncnc3sc(-c4ccccc4)cc23)CC(C)(C)N1`, the concentration for an effect of 90% (IC90) is over 10 µM. The IC50 (PBLUC_HILL_SLOPE 16.4, PBLUC_R_SQUARED 0.0474, read-out: LUCIFERASE INFECTION ASSAY - IC50) is 8.84 µM.
Turning to `O=C(Nc1cccc(-c2nc(-c3cccc(F)c3)cs2)c1)C1CC1`, the IC90 is over 10 µM. The IC50 (PBLUC_HILL_SLOPE 2.07, PBLUC_R_SQUARED 0.228, read-out: LUCIFERASE INFECTION ASSAY - IC50) came to 5.44 µM.
`COc1ccc(NS(=O)(=O)c2ccc3oc(SC(C)C(=O)N4CCNC4=O)nc3c2)cc1` (configuration not stated): the IC90 is over 10 µM. The IC50 under setting [1] was over 10 µM.
For the molecule `COc1ccc(OCCn2nc(-c3cccs3)c3ccccc3c2=O)cc1`, the concentration for an effect of 90% (IC90) was over 10 µM. Moreover, the IC50 under setting [1] was found to be 3.71 µM.
Regarding `c1ccc(-c2cn3nc(NCC(c4cccs4)N4CCOCC4)sc3n2)cc1` (configuration not stated), the IC90 amounted to 6.67 µM. Moreover, the IC50 (PBLUC_HILL_SLOPE 82.8, PBLUC_R_SQUARED 0.111, read-out: LUCIFERASE INFECTION ASSAY - IC50) was 6.5 µM.
In the case of `Cc1nn(-c2ccccc2Cl)c2sc(C(=O)Nc3ccc(N4CCN(C)CC4)nc3)cc12`, the IC90 was over 10 µM. Besides, the IC50 (PBLUC_HILL_SLOPE 1.19, PBLUC_R_SQUARED 0.233, read-out: LUCIFERASE INFECTION ASSAY - IC50) worked out at 5.77 µM.
With `OCc1ccc(-c2cnc3cnc(-c4ccco4)cn23)cc1`, the concentration for an effect of 90% (IC90) is over 11.3 µM. The IC50 under setting [1] is over 11.3 µM.
Take `CCSc1ccccc1C(=O)Nc1ccc(C(=O)OC)cc1`: the IC90 was over 10.5 µM. The IC50 under setting [1] was over 10.5 µM.
Regarding `O=C(COC(=O)c1cc(-c2ccccc2)c(N2CCOCC2)s1)c1ccc2c(c1)OCCO2`, the IC90 was over 10 µM. Moreover, under setting [1], the IC50 is over 10 µM.
For `Cc1ccc(Cn2cc(/C=C/C(=O)Nc3ccn(C)n3)c(-c3ccccc3)n2)cc1`, the IC90 came out at 5.35 µM. For the same molecule, under “PBLUC_HILL_SLOPE 23.0, 1.63, PBLUC_R_SQUARED 0.221, 0.716, read-out: LUCIFERASE INFECTION ASSAY - IC50”, the IC50 was 5.32 µM.
Regarding `Nc1ccccc1C(=O)Nc1cc(C(F)(F)F)cc(C(F)(F)F)c1`, the IC90 was over 9.48 µM. In addition, the half-inhibitory concentration (IC50) under setting [1] was over 9.48 µM.
`Oc1c(C(c2ccc(Cl)cc2Cl)N2CCOCC2)ccc2cccnc12` (configuration not stated): the IC90 was found to be 8.77 µM. For the same molecule, the concentration for half-maximal inhibition (IC50) under setting [1] was 4.36 µM.
On to `Cc1c(C(=O)OC(C(=O)c2ccccc2)c2ccccc2)sc2ncn(C)c(=O)c12` (configuration not stated), for which the IC90 is 8.68 µM. For the setting “PBLUC_HILL_SLOPE 24.2, PBLUC_R_SQUARED 0.462, read-out: LUCIFERASE INFECTION ASSAY - IC50”, the IC50 was determined as 7.93 µM.
As for `O=C(N/N=C/c1ccc(N2CCCCC2)s1)c1ccccc1O`, the IC90 was 5.71 µM. The IC50 (PBLUC_HILL_SLOPE 8.76, 2.86, PBLUC_R_SQUARED 0.104, 0.555, read-out: LUCIFERASE INFECTION ASSAY - IC50) amounted to 3.37 µM.
Turning to `C/C(=N\NC(=O)c1ccccc1)c1ccccc1O`, the IC90 was over 13 µM. For the same molecule, the IC50 (HEPG2TOX_HILL_SLOPE 1.31, HEPG2TOX_R_SQUARED 0.966, PBLUC_HILL_SLOPE 10.4, PBLUC_R_SQUARED 0.464, read-out: LUCIFERASE INFECTION ASSAY - IC50) was over 13 µM.
Turning to `O=[N+]([O-])c1cccc(-c2nnc3c4ccccc4nc(C(F)(F)F)n23)c1`, the IC90 was over 9.19 µM. The IC50 (HEPG2TOX_HILL_SLOPE 7.76, HEPG2TOX_R_SQUARED 0.363, PBLUC_HILL_SLOPE 1.91, PBLUC_R_SQUARED 0.781, read-out: LUCIFERASE INFECTION ASSAY - IC50) was 4.42 µM.
With `O=C1Nc2ccccc2/C1=C/c1ccccc1N1CCOCC1`, the IC90 was over 10.8 µM. In addition, the IC50 (HEPG2TOX_HILL_SLOPE 1.93, HEPG2TOX_R_SQUARED 0.799, PBLUC_HILL_SLOPE 2.49, PBLUC_R_SQUARED 0.295, read-out: LUCIFERASE INFECTION ASSAY - IC50) stood at 5.94 µM.
Take `COc1cc(Nc2nc3cnc(-c4cccnc4)cc3n2C)cc(OC)c1OC`: the IC90 is over 10 µM. The IC50 under setting [1] amounted to 8.65 µM.
For `Cn1nc(C(C)(C)C)cc1NC(=O)Nc1cc(Cl)cc(Cl)c1` the same measures were over 9.67 µM and over 9.67 µM.
In the case of `CN(C)c1ccc(Nc2nc(=O)cn[nH]2)cc1`, the IC90 is over 14.3 µM. The IC50 (PBLUC_HILL_SLOPE 0.727, PBLUC_R_SQUARED 0.391, read-out: LUCIFERASE INFECTION ASSAY - IC50) was over 14.3 µM.
Take `N#C/C=C1\SCC(=O)N1CC(=O)c1ccc([N+](=O)[O-])cc1`: the IC90 is over 10 µM. For the same molecule, under “PBLUC_HILL_SLOPE 1.79, PBLUC_R_SQUARED 0.472, read-out: LUCIFERASE INFECTION ASSAY - IC50”, the IC50 came to 5.27 µM.
As to `CC(C)c1ccc(NC(=O)Nc2nc(C(N)COCc3ccccc3)cs2)cc1` (configuration not stated), the 90% effect concentration (IC90) is over 8.04 µM. For the same molecule, the IC50 (PBLUC_HILL_SLOPE 1.46, PBLUC_R_SQUARED 0.665, read-out: LUCIFERASE INFECTION ASSAY - IC50) was found to be 4.91 µM.
For the molecule `CC(C)c1ccc(NC(=O)c2ccc(N(C)C)c([N+](=O)[O-])c2)cc1`, the IC90 was 8.31 µM. For the same molecule, the IC50 (PBLUC_HILL_SLOPE 3.41, PBLUC_R_SQUARED 0.504, read-out: LUCIFERASE INFECTION ASSAY - IC50) amounted to 4.36 µM.
Regarding `CC(C)Oc1ccccc1Nc1nc(=O)cn[nH]1`, the IC90 was over 13.4 µM. Further, the IC50 under setting [1] was over 13.4 µM.
`Cc1ccc(C)c(S(=O)(=O)Oc2ccccc2C(=O)OCC(=O)c2c(C)[nH]c3ccccc23)c1`: the IC90 was over 10 µM. Also, the IC50 (HEPG2TOX_HILL_SLOPE 0.276, HEPG2TOX_R_SQUARED 0.379, PBLUC_HILL_SLOPE 12.5, PBLUC_R_SQUARED 0.167, read-out: LUCIFERASE INFECTION ASSAY - IC50) is over 10 µM.
In the case of `CCCCCCNC(=S)c1c(-c2ccc(F)cc2)c2c3n(c(COc4cc(C)ccc4C(C)C)nn13)CCCC2`, the IC90 came out at 8.92 µM. The half-inhibitory concentration (IC50) (HEPG2TOX_HILL_SLOPE 19.8, 4.67, HEPG2TOX_R_SQUARED 0.943, 0.975, PBLUC_HILL_SLOPE 3.99, PBLUC_R_SQUARED 0.689, read-out: LUCIFERASE INFECTION ASSAY - IC50) stood at 5.14 µM.
Turning to `COc1ccc(C(OC[C@H]2O[C@@H](n3cnc4c(N)ncnc43)CC2O)(c2ccccc2)c2ccc(OC)cc2)cc1` (some centres not stated), the IC90 was over 5.96 µM. In addition, the IC50 under setting [1] was over 5.96 µM.
For `COc1ccc(C(c2cc(Cl)c3cccnc3c2O)N2CCN(C)CC2)cc1` (configuration not stated), the IC90 was determined as 3.38 µM. Further, the IC50 (FFLUC_HILL_SLOPE 2.4, FFLUC_R_SQUARED 0.862, HEPG2TOX_HILL_SLOPE 1.1, HEPG2TOX_R_SQUARED 0.743, PBLUC_HILL_SLOPE 15.9, PBLUC_R_SQUARED 0.801, read-out: LUCIFERASE INFECTION ASSAY - IC50) was 2.95 µM.
Consider `CCn1nc(C)c([N+](=O)[O-])c1C(=O)Sc1cccc(Br)c1`, for which the IC90 was over 8.91 µM. Under setting [1], the IC50 is over 8.91 µM.
`CN(C)c1c(/C=C2\C(=O)Nc3ccccc32)cc(/C=C2/C(=O)Nc3ccccc32)c(N(C)C)c1C#N`: the IC90 was 4.13 µM. For the same molecule, the IC50 (FFLUC_HILL_SLOPE 3.06, FFLUC_R_SQUARED 0.454, HEPG2TOX_HILL_SLOPE 1.28, HEPG2TOX_R_SQUARED 0.858, PBLUC_HILL_SLOPE 2.4, PBLUC_R_SQUARED 0.768, read-out: LUCIFERASE INFECTION ASSAY - IC50) turned out to be 1.65 µM.
`CCOc1cc(CN(CC)CC(=O)Nc2c(F)cccc2F)ccc1OCc1cccs1`: the IC90 is over 10 µM. In addition, under setting [1], the IC50 was over 10 µM.
